From US6444617B1, “Fused-heterocycle dicarboxylic acid diamide derivatives or salts thereof, herbicide and usage thereof” (Nihon Nohyaku Co., Ltd., priority 1998, dated 2002)

What was measured:
Assay type in all cases: in vivo
soybean plant (So) = experiment: Test Example 3: phytotoxicity to upland crop plants, treatment before emergence; settings: dosage 5 kg/ha
Summary of the method: (§1)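 Crops treated before emergence with sprayed liquid preparation of compound (prescribed concentration). Day 14: phytotoxicity graded per criterion.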

wheat (Wh) = experiment: as above; settings: dosage 5 kg/ha
Summary of the method: as §1

[1] = test system: barnyard grass (Echinochloa crus-galli Beauv.); experiment: Test Example 2: herbicidal effect on paddy field weeds after emergence; settings: Dosage 5 kg/ha; one-leaved stage; 21 days after treatment
Summary of the method: (§2)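 Weeds in flooded paddy-soil pots were grown to the one-leaved stage, then the soil was treated with the compound solution at a set dosage.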

[2] = test system: monochoria (Monochoria vaginalis Presl); experiment: as above; settings: Dosage 5 kg/ha; one-leaved stage; 21 days after treatment
Summary of the method: as §2

[3] = test system: bulrush (Scirpus juncoides Roxb.); experiment: as above; settings: Dosage 5 kg/ha; one-leaved stage; 21 days after treatment
Summary of the method: as §2

[4] = test system: forxtail grass (Alopecurus aequalis var. amurensis Ohwi), Am; experiment: Test Example 3: herbicidal effect on upland weeds before emergence; settings: foxtail grass, dosage 5 kg/ha
Summary of the method: (§3)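 Herbicidal activity was rated from kill rate determined 14 days post-spray, the compound having been applied pre-emergence as a liquid agent.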

[5] = test system: cocklebur (Xanthium strumarium L.), Xs; experiment: as above; settings: dosage 5 kg/ha
Summary of the method: as §3

[6] = test system: bird's eye speedwell (Veronica persica Poir.), Vp; experiment: as above; settings: dosage 5 kg/ha
Summary of the method: as §3

[7] = test system: cleavers (Galium aparine L.), Ga; experiment: as above; settings: dosage 5 kg/ha
Summary of the method: as §3

[8] = test system: velvetleaf (Abutilon theophtasti L.), At; experiment: as above; settings: dosage 5 kg/ha
Summary of the method: as §3

[9] = test system: barnyard grass (Echinochloa crus-galli Beauv.), Ec; experiment: as above; settings: dosage 5 kg/ha
Summary of the method: as §3

[10] = test system: barnyard grass (Echinochloa crus-galli Beauv.); experiment: Test Example 1: herbicidal effect on paddy field weeds before emergence; settings: Dosage 5 kg/ha
Summary of the method: (§4)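 Grading reflects percent control relative to untreated plots, evaluated three weeks post-application. Treatment was a soil application of compound solution, predetermined dose, made to paddy-state pots before weed seeds germinated.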

[11] = test system: bulrush (Scirpus juncoides Roxb.); experiment: as above; settings: Dosage 5 kg/ha
Summary of the method: as §4

wheat = experiment: Test Example 4: phytotoxicity to upland crop plants, treatment after emergence; settings: dosage 5 kg/ha, sprayed after emergence, judged 14 days after treatment
Summary of the method: (§5)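 Upland weeds and crop plants (soybean, wheat) are grown from seed in soil until they reach given leaf stages, then treated by spraying with the compound-containing agent; effects are judged two weeks later.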

soybean plant = experiment: as above; settings: dosage 5 kg/ha, sprayed after emergence, judged 14 days after treatment
Summary of the method: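 Post-emergence foliar spray, compound at prescribed concentration, applied at defined leaf stages; weeds plus soybean/wheat grown in soil vats. Read-out: weed-killing rate and crop injury, 14 d post-treatment.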

[12] = test system: forxtail grass (Alopecurus aequalis var. amurensis Ohwi), Am; experiment: Test Example 4: herbicidal effect on upland weeds after emergence; settings: dosage 5 kg/ha; sprayed after emergence; judged 14 days after treatment
Summary of the method: as §5

[13] = test system: cocklebur (Xanthium strumarium L.), Xs; experiment: as above; settings: dosage 5 kg/ha; sprayed after emergence; judged 14 days after treatment
Summary of the method: as §5

[14] = test system: bird's eye speedwell (Veronica persica Poir.), Vp; experiment: as above; settings: dosage 5 kg/ha; sprayed after emergence; judged 14 days after treatment
Summary of the method: as §5

[15] = test system: cleavers (Galium aparine L.), Ga; experiment: as above; settings: dosage 5 kg/ha; sprayed after emergence; judged 14 days after treatment
Summary of the method: as §5

[16] = test system: velvetleaf (Abutilon theophtasti L.), At; experiment: as above; settings: dosage 5 kg/ha; sprayed after emergence; judged 14 days after treatment
Summary of the method: as §5

[17] = test system: barnyard grass (Echinochloa crus-galli Beauv.), Ec; experiment: as above; settings: dosage 5 kg/ha; sprayed after emergence; judged 14 days after treatment
Summary of the method: as §5

Which results are given for `CCCNC(=O)c1nc2c(cc1C(=O)Nc1cccc(Cl)c1C)CCOC2` [compound 450]?
Phytotoxicity So (soybean plant (So)): 4 (Crop-killing rate is 90-99%.); Phytotoxicity Wh (wheat (Wh)): 4 (Crop-killing rate is 90-99%.); Post-emergence treatment Barnyard grass (herbicidal effect) [1]: 5 (Weed-killing rate is 100%.); Post-emergence treatment Monochoria (herbicidal effect) [2]: 5 (Weed-killing rate is 100%.); Post-emergence treatment Bulrush (herbicidal effect) [3]: 5 (Weed-killing rate is 100%.); Herbicidal effect Am [4]: 5 (Weed-killing rate is 100%.); Herbicidal effect Xs [5]: 4 (Weed-killing rate is 90-99%.); Herbicidal effect Vp [6]: 5 (Weed-killing rate is 100%.); Herbicidal effect Ga [7]: 4 (Weed-killing rate is 90-99%.); Herbicidal effect At [8]: 5 (Weed-killing rate is 100%.); Herbicidal effect Ec [9]: 5 (Weed-killing rate is 100%.); Pre-emergence treatment Barnyard grass (herbicidal effect) [10]: 5 (Weed-killing rate is 100%.); Pre-emergence treatment Bulrush (herbicidal effect) [11]: 5 (Weed-killing rate is 100%.); Phytotoxicity Wh (wheat): 4 (Crop-killing rate is 90-99%.); Phytotoxicity So (soybean plant): 4 (Crop-killing rate is 90-99%.); Herbicidal effect Am [12]: 5 (Weed-killing rate is 100%.); Herbicidal effect Xs [13]: 4 (Weed-killing rate is 90-99%.); Herbicidal effect Vp [14]: 5 (Weed-killing rate is 100%.); Herbicidal effect Ga [15]: 4 (Weed-killing rate is 90-99%.); Herbicidal effect At [16]: 5 (Weed-killing rate is 100%.); Herbicidal effect Ec [17]: 5 (Weed-killing rate is 100%.)

Which “Phytotoxicity So” value (soybean plant (So)) does the source give for `CCCNC(=O)c1nc2c(cc1C(=O)Nc1cccc(Cl)c1C)COCC2` [compound 474] here?
The value was 3 (Crop-killing rate is 70-89%.).

What about the “Phytotoxicity Wh” value (wheat (Wh)) of the same compound?
The value was 4 (Crop-killing rate is 90-99%.).

What about the “Post-emergence treatment Barnyard grass (herbicidal effect)” value [1] of the same compound?
The value was 5 (Weed-killing rate is 100%.).

What about the “Post-emergence treatment Monochoria (herbicidal effect)” value [2] of the same compound?
Its value is 5 (Weed-killing rate is 100%.).

What about the “Post-emergence treatment Bulrush (herbicidal effect)” value [3] of the same compound?
Its value is 5 (Weed-killing rate is 100%.).

What about the “Herbicidal effect Am” value [4] of the same compound?
Its value is 5 (Weed-killing rate is 100%.).

What about the “Herbicidal effect Xs” value [5] of the same compound?
The value was 4 (Weed-killing rate is 90-99%.).

And the “Herbicidal effect Vp” value [6]?
The value was 5 (Weed-killing rate is 100%.).

What about the “Herbicidal effect Ga” value [7] of the same compound?
The value was 4 (Weed-killing rate is 90-99%.).

What about the “Herbicidal effect At” value [8] of the same compound?
The value was 5 (Weed-killing rate is 100%.).

And the “Herbicidal effect Ec” value [9]?
The value was 5 (Weed-killing rate is 100%.).

And the “Pre-emergence treatment Barnyard grass (herbicidal effect)” value [10]?
The value was 5 (Weed-killing rate is 100%.).

And the “Pre-emergence treatment Bulrush (herbicidal effect)” value [11]?
The value was 5 (Weed-killing rate is 100%.).

What about the “Phytotoxicity Wh” value (wheat) of the same compound?
The value was 3 (Crop-killing rate is 70-89%.).

What about the “Phytotoxicity So” value (soybean plant) of the same compound?
Its value is 3 (Crop-killing rate is 70-89%.).

What about the “Herbicidal effect Am” value [12] of the same compound?
Its value is 5 (Weed-killing rate is 100%.).

And the “Herbicidal effect Xs” value [13]?
The value was 4 (Weed-killing rate is 90-99%.).

And the “Herbicidal effect Vp” value [14]?
Its value is 5 (Weed-killing rate is 100%.).

And the “Herbicidal effect Ga” value [15]?
Its value is 4 (Weed-killing rate is 90-99%.).

What about the “Herbicidal effect At” value [16] of the same compound?
The value was 5 (Weed-killing rate is 100%.).

What about the “Herbicidal effect Ec” value [17] of the same compound?
Its value is 5 (Weed-killing rate is 100%.).

For `CCCNC(=O)c1nc2c(cc1C(=O)Nc1c(CC)ccc(Cl)c1CC)OCCC2` [compound 486], which “Phytotoxicity So” value (soybean plant (So)) is on record?
Its value is 4 (Crop-killing rate is 90-99%.).

What about the “Phytotoxicity Wh” value (wheat (Wh)) of the same compound?
The value was 4 (Crop-killing rate is 90-99%.).

And the “Post-emergence treatment Barnyard grass (herbicidal effect)” value [1]?
The value was 5 (Weed-killing rate is 100%.).

What about the “Post-emergence treatment Monochoria (herbicidal effect)” value [2] of the same compound?
The value was 5 (Weed-killing rate is 100%.).

And the “Post-emergence treatment Bulrush (herbicidal effect)” value [3]?
The value was 5 (Weed-killing rate is 100%.).

And the “Herbicidal effect Am” value [4]?
Its value is 5 (Weed-killing rate is 100%.).

What about the “Herbicidal effect Xs” value [5] of the same compound?
Its value is 5 (Weed-killing rate is 100%.).

And the “Herbicidal effect Vp” value [6]?
Its value is 5 (Weed-killing rate is 100%.).

What about the “Herbicidal effect Ga” value [7] of the same compound?
The value was 5 (Weed-killing rate is 100%.).

And the “Herbicidal effect At” value [8]?
The value was 5 (Weed-killing rate is 100%.).

What about the “Herbicidal effect Ec” value [9] of the same compound?
The value was 5 (Weed-killing rate is 100%.).

What about the “Pre-emergence treatment Barnyard grass (herbicidal effect)” value [10] of the same compound?
Its value is 5 (Weed-killing rate is 100%.).

What about the “Pre-emergence treatment Bulrush (herbicidal effect)” value [11] of the same compound?
The value was 5 (Weed-killing rate is 100%.).

And the “Phytotoxicity Wh” value (wheat)?
The value was 4 (Crop-killing rate is 90-99%.).

And the “Phytotoxicity So” value (soybean plant)?
Its value is 4 (Crop-killing rate is 90-99%.).

What about the “Herbicidal effect Am” value [12] of the same compound?
Its value is 5 (Weed-killing rate is 100%.).

What about the “Herbicidal effect Xs” value [13] of the same compound?
Its value is 5 (Weed-killing rate is 100%.).

And the “Herbicidal effect Vp” value [14]?
The value was 5 (Weed-killing rate is 100%.).

What about the “Herbicidal effect Ga” value [15] of the same compound?
Its value is 5 (Weed-killing rate is 100%.).

And the “Herbicidal effect At” value [16]?
Its value is 5 (Weed-killing rate is 100%.).

And the “Herbicidal effect Ec” value [17]?
The value was 5 (Weed-killing rate is 100%.).

What does the source list for `CCCNC(=O)c1nc2c(cc1C(=O)Nc1cccc(Cl)c1C)OCCC2` [compound 498]?
Phytotoxicity So (soybean plant (So)): 4 (Crop-killing rate is 90-99%.); Phytotoxicity Wh (wheat (Wh)): 4 (Crop-killing rate is 90-99%.); Post-emergence treatment Barnyard grass (herbicidal effect) [1]: 5 (Weed-killing rate is 100%.); Post-emergence treatment Monochoria (herbicidal effect) [2]: 5 (Weed-killing rate is 100%.); Post-emergence treatment Bulrush (herbicidal effect) [3]: 5 (Weed-killing rate is 100%.); Herbicidal effect Am [4]: 5 (Weed-killing rate is 100%.); Herbicidal effect Xs [5]: 4 (Weed-killing rate is 90-99%.); Herbicidal effect Vp [6]: 5 (Weed-killing rate is 100%.); Herbicidal effect Ga [7]: 4 (Weed-killing rate is 90-99%.); Herbicidal effect At [8]: 5 (Weed-killing rate is 100%.); Herbicidal effect Ec [9]: 5 (Weed-killing rate is 100%.); Pre-emergence treatment Barnyard grass (herbicidal effect) [10]: 5 (Weed-killing rate is 100%.); Pre-emergence treatment Bulrush (herbicidal effect) [11]: 5 (Weed-killing rate is 100%.); Phytotoxicity Wh (wheat): 4 (Crop-killing rate is 90-99%.); Phytotoxicity So (soybean plant): 4 (Crop-killing rate is 90-99%.); Herbicidal effect Am [12]: 5 (Weed-killing rate is 100%.); Herbicidal effect Xs [13]: 4 (Weed-killing rate is 90-99%.); Herbicidal effect Vp [14]: 5 (Weed-killing rate is 100%.); Herbicidal effect Ga [15]: 4 (Weed-killing rate is 90-99%.); Herbicidal effect At [16]: 5 (Weed-killing rate is 100%.); Herbicidal effect Ec [17]: 5 (Weed-killing rate is 100%.)

What does the source list for `CCCNC(=O)c1nc2c(cc1C(=O)Nc1c(CC)ccc(Cl)c1CC)CCCS2` [compound 510]?
Phytotoxicity So (soybean plant (So)): 4 (Crop-killing rate is 90-99%.); Phytotoxicity Wh (wheat (Wh)): 5 (Crop-killing rate is 100%.); Post-emergence treatment Barnyard grass (herbicidal effect) [1]: 5 (Weed-killing rate is 100%.); Post-emergence treatment Monochoria (herbicidal effect) [2]: 5 (Weed-killing rate is 100%.); Post-emergence treatment Bulrush (herbicidal effect) [3]: 5 (Weed-killing rate is 100%.); Herbicidal effect Am [4]: 5 (Weed-killing rate is 100%.); Herbicidal effect Xs [5]: 5 (Weed-killing rate is 100%.); Herbicidal effect Vp [6]: 5 (Weed-killing rate is 100%.); Herbicidal effect Ga [7]: 5 (Weed-killing rate is 100%.); Herbicidal effect At [8]: 5 (Weed-killing rate is 100%.); Herbicidal effect Ec [9]: 5 (Weed-killing rate is 100%.); Pre-emergence treatment Barnyard grass (herbicidal effect) [10]: 5 (Weed-killing rate is 100%.); Pre-emergence treatment Bulrush (herbicidal effect) [11]: 5 (Weed-killing rate is 100%.); Phytotoxicity Wh (wheat): 5 (Crop-killing rate is 100%.); Phytotoxicity So (soybean plant): 4 (Crop-killing rate is 90-99%.); Herbicidal effect Am [12]: 5 (Weed-killing rate is 100%.); Herbicidal effect Xs [13]: 5 (Weed-killing rate is 100%.); Herbicidal effect Vp [14]: 5 (Weed-killing rate is 100%.); Herbicidal effect Ga [15]: 5 (Weed-killing rate is 100%.); Herbicidal effect At [16]: 5 (Weed-killing rate is 100%.); Herbicidal effect Ec [17]: 5 (Weed-killing rate is 100%.)
